Assay results taken from PubChem BioAssay (NCI).
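All cell lines were grown in 96-well plates and treated with compound for 48 hours. TGI marks complete inhibition of growth.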

Columns and labels:
Assay in all cases: NCI anticancer screen, dose series, 48 h
NCI-H460 lung = test system: NCI-H460 lung
RPMI-8226 leukemia = test system: RPMI-8226 leukemia
MDA-N = test system: MDA-N
U251 CNS = test system: U251 CNS
OVCAR-4 ovarian = test system: OVCAR-4 ovarian
NCI-H23 lung = test system: NCI-H23 lung
HCT-116 colon = test system: HCT-116 colon
HS 578T breast = test system: HS 578T breast
OVCAR-8 ovarian = test system: OVCAR-8 ovarian
UO-31 renal = test system: UO-31 renal
MALME-3M melanoma = test system: MALME-3M melanoma
SK-MEL-2 melanoma = test system: SK-MEL-2 melanoma
SF-268 CNS = test system: SF-268 CNS
T-47D breast = test system: T-47D breast
UACC-62 melanoma = test system: UACC-62 melanoma
MCF7 breast = test system: MCF7 breast
SF-295 CNS = test system: SF-295 CNS
PC-3 prostate = test system: PC-3 prostate
KM12 colon = test system: KM12 colon
A549 NSCLC = test system: A549 NSCLC
HOP-92 NSCLC = test system: HOP-92 NSCLC
HCC-2998 colon = test system: HCC-2998 colon
NCI/ADR-RES ovarian = test system: NCI/ADR-RES ovarian
ACHN renal = test system: ACHN renal
MOLT-4 leukemia = test system: MOLT-4 leukemia
HT29 colon = test system: HT29 colon
OVCAR-3 ovarian = test system: OVCAR-3 ovarian
COLO 205 colon = test system: COLO 205 colon
786-0 renal = test system: 786-0 renal
RXF 393 renal = test system: RXF 393 renal
NCI-H226 lung = test system: NCI-H226 lung
MDA-MB-435 = test system: MDA-MB-435
OVCAR-5 ovarian = test system: OVCAR-5 ovarian
SF-539 CNS = test system: SF-539 CNS
NCI-H522 lung = test system: NCI-H522 lung
SK-MEL-28 melanoma = test system: SK-MEL-28 melanoma
SW-620 colon = test system: SW-620 colon
CCRF-CEM leukemia = test system: CCRF-CEM leukemia
SN12C renal = test system: SN12C renal
SK-OV-3 ovarian = test system: SK-OV-3 ovarian
HOP-62 NSCLC = test system: HOP-62 NSCLC
K-562 leukemia = test system: K-562 leukemia
MDA-MB-231 breast = test system: MDA-MB-231 breast
EKVX NSCLC = test system: EKVX NSCLC
SNB-75 CNS = test system: SNB-75 CNS
SNB-19 CNS = test system: SNB-19 CNS
HL-60(TB) leukemia = test system: HL-60(TB) leukemia
TK-10 renal = test system: TK-10 renal
BT-549 breast = test system: BT-549 breast
M14 melanoma = test system: M14 melanoma
UACC-257 melanoma = test system: UACC-257 melanoma
DU-145 prostate = test system: DU-145 prostate
SR leukemia = test system: SR leukemia
CAKI-1 renal = test system: CAKI-1 renal
IGROV1 ovarian = test system: IGROV1 ovarian
HCT-15 colon = test system: HCT-15 colon
LOX IMVI melanoma = test system: LOX IMVI melanoma
SK-MEL-5 melanoma = test system: SK-MEL-5 melanoma
A498 renal = test system: A498 renal

SMILES: O=C(N/N=C\c1ccc2ccccc2c1)Nc1ccc([N+](=O)[O-])cc1
- TGI (NCI-H460 lung): > 65.1 µM
- TGI (RPMI-8226 leukemia): > 100 µM
- TGI (MDA-N): > 70.6 µM
- TGI (U251 CNS): > 100 µM
- TGI (OVCAR-4 ovarian): > 70.2 µM
- TGI (NCI-H23 lung): > 72.3 µM
- TGI (HCT-116 colon): > 59 µM
- TGI (HS 578T breast): > 100 µM
- TGI (OVCAR-8 ovarian): > 66.1 µM
- TGI (UO-31 renal): > 59.3 µM
- TGI (MALME-3M melanoma): > 70.9 µM
- TGI (SK-MEL-2 melanoma): > 73.5 µM
- TGI (SF-268 CNS): > 89.9 µM
- TGI (T-47D breast): > 59 µM
- TGI (UACC-62 melanoma): > 74.8 µM
- TGI (MCF7 breast): > 100 µM
- TGI (SF-295 CNS): > 68.9 µM
- TGI (PC-3 prostate): > 73 µM
- TGI (KM12 colon): > 100 µM
- TGI (A549 NSCLC): > 85 µM
- TGI (HOP-92 NSCLC): 38.5 µM
- TGI (HCC-2998 colon): > 63.3 µM
- TGI (NCI/ADR-RES ovarian): > 70.1 µM
- TGI (ACHN renal): > 63.8 µM
- TGI (MOLT-4 leukemia): 97.7 µM
- TGI (HT29 colon): > 75.6 µM
- TGI (OVCAR-3 ovarian): 55.4 µM
- TGI (COLO 205 colon): > 60 µM
- TGI (786-0 renal): > 62.8 µM
- TGI (RXF 393 renal): > 79.2 µM
- TGI (NCI-H226 lung): > 100 µM
- TGI (MDA-MB-435): > 100 µM
- TGI (OVCAR-5 ovarian): 62.9 µM
- TGI (SF-539 CNS): > 69.7 µM
- TGI (NCI-H522 lung): > 66.8 µM
- TGI (SK-MEL-28 melanoma): > 84.8 µM
- TGI (SW-620 colon): > 100 µM
- TGI (CCRF-CEM leukemia): > 100 µM
- TGI (SN12C renal): > 59.8 µM
- TGI (SK-OV-3 ovarian): > 59.8 µM
- TGI (HOP-62 NSCLC): 68.1 µM
- TGI (K-562 leukemia): > 100 µM
- TGI (MDA-MB-231 breast): > 100 µM
- TGI (EKVX NSCLC): > 100 µM
- TGI (SNB-75 CNS): > 100 µM
- TGI (SNB-19 CNS): > 100 µM
- TGI (HL-60(TB) leukemia): > 100 µM
- TGI (TK-10 renal): > 55.9 µM
- TGI (BT-549 breast): > 77.3 µM
- TGI (M14 melanoma): > 95.8 µM
- TGI (UACC-257 melanoma): > 75 µM
- TGI (DU-145 prostate): > 65 µM
- TGI (SR leukemia): > 100 µM
- TGI (CAKI-1 renal): > 100 µM
- TGI (IGROV1 ovarian): > 100 µM
- TGI (HCT-15 colon): > 72.6 µM
- TGI (LOX IMVI melanoma): > 100 µM
- TGI (SK-MEL-5 melanoma): > 70.4 µM

SMILES: N#Cc1ccc(OCc2nc3cc(C(F)(F)F)ccc3nc2-c2ccccc2)cc1
- TGI (A498 renal): > 100 µM
- TGI (NCI-H460 lung): > 100 µM
- TGI (RPMI-8226 leukemia): > 100 µM
- TGI (MDA-N): > 100 µM
- TGI (U251 CNS): > 100 µM
- TGI (OVCAR-4 ovarian): > 100 µM
- TGI (NCI-H23 lung): > 100 µM
- TGI (HCT-116 colon): > 100 µM
- TGI (HS 578T breast): > 100 µM
- TGI (OVCAR-8 ovarian): > 100 µM
- TGI (UO-31 renal): > 100 µM
- TGI (MALME-3M melanoma): > 100 µM
- TGI (SK-MEL-2 melanoma): > 100 µM
- TGI (SF-268 CNS): > 100 µM
- TGI (T-47D breast): > 100 µM
- TGI (UACC-62 melanoma): > 100 µM
- TGI (MCF7 breast): > 100 µM
- TGI (SF-295 CNS): > 100 µM
- TGI (PC-3 prostate): > 100 µM
- TGI (KM12 colon): > 100 µM
- TGI (A549 NSCLC): > 100 µM
- TGI (HOP-92 NSCLC): > 100 µM
- TGI (HCC-2998 colon): > 100 µM
- TGI (NCI/ADR-RES ovarian): > 100 µM
- TGI (ACHN renal): > 100 µM
- TGI (MOLT-4 leukemia): > 100 µM
- TGI (HT29 colon): > 100 µM
- TGI (OVCAR-3 ovarian): > 100 µM
- TGI (COLO 205 colon): > 100 µM
- TGI (786-0 renal): > 100 µM
- TGI (MDA-MB-435): > 100 µM
- TGI (OVCAR-5 ovarian): > 100 µM
- TGI (SF-539 CNS): > 100 µM
- TGI (NCI-H522 lung): > 100 µM
- TGI (SK-MEL-28 melanoma): > 100 µM
- TGI (SW-620 colon): > 100 µM
- TGI (CCRF-CEM leukemia): > 100 µM
- TGI (SN12C renal): > 100 µM
- TGI (HOP-62 NSCLC): > 100 µM
- TGI (MDA-MB-231 breast): > 100 µM
- TGI (EKVX NSCLC): > 100 µM
- TGI (SNB-75 CNS): > 100 µM
- TGI (SNB-19 CNS): > 100 µM
- TGI (HL-60(TB) leukemia): > 100 µM
- TGI (TK-10 renal): > 100 µM
- TGI (BT-549 breast): > 100 µM
- TGI (M14 melanoma): > 100 µM
- TGI (UACC-257 melanoma): > 100 µM
- TGI (DU-145 prostate): > 100 µM
- TGI (SR leukemia): > 100 µM
- TGI (CAKI-1 renal): > 100 µM
- TGI (IGROV1 ovarian): > 100 µM
- TGI (LOX IMVI melanoma): > 100 µM
- TGI (SK-MEL-5 melanoma): > 100 µM
